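All cell lines were grown in 96-well plates and treated with compound for 48 hours. TGI: concentration producing complete growth inhibition.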
Experiments:
Test in all cases: inhibition of tumour cell growth, NCI panel, 48 h
786-0 renal = system: 786-0 renal
A498 renal = system: A498 renal
A549 NSCLC = system: A549 NSCLC
ACHN renal = system: ACHN renal
CAKI-1 renal = system: CAKI-1 renal
CCRF-CEM leukemia = system: CCRF-CEM leukemia
COLO 205 colon = system: COLO 205 colon
DU-145 prostate = system: DU-145 prostate
EKVX NSCLC = system: EKVX NSCLC
HCC-2998 colon = system: HCC-2998 colon
HCT-116 colon = system: HCT-116 colon
HCT-15 colon = system: HCT-15 colon
HL-60(TB) leukemia = system: HL-60(TB) leukemia
HOP-62 NSCLC = system: HOP-62 NSCLC
HOP-92 NSCLC = system: HOP-92 NSCLC
HS 578T breast = system: HS 578T breast
HT29 colon = system: HT29 colon
IGROV1 ovarian = system: IGROV1 ovarian
K-562 leukemia = system: K-562 leukemia
KM12 colon = system: KM12 colon
LOX IMVI melanoma = system: LOX IMVI melanoma
M14 melanoma = system: M14 melanoma
MALME-3M melanoma = system: MALME-3M melanoma
MCF7 breast = system: MCF7 breast
MDA-MB-231 breast = system: MDA-MB-231 breast
MDA-MB-435 = system: MDA-MB-435
MDA-N = system: MDA-N
MOLT-4 leukemia = system: MOLT-4 leukemia
NCI-H226 lung = system: NCI-H226 lung
NCI-H23 lung = system: NCI-H23 lung
NCI-H460 lung = system: NCI-H460 lung
NCI-H522 lung = system: NCI-H522 lung
NCI/ADR-RES ovarian = system: NCI/ADR-RES ovarian
OVCAR-3 ovarian = system: OVCAR-3 ovarian
OVCAR-5 ovarian = system: OVCAR-5 ovarian
OVCAR-8 ovarian = system: OVCAR-8 ovarian
PC-3 prostate = system: PC-3 prostate
RPMI-8226 leukemia = system: RPMI-8226 leukemia
RXF 393 renal = system: RXF 393 renal
SF-268 CNS = system: SF-268 CNS
SF-295 CNS = system: SF-295 CNS
SF-539 CNS = system: SF-539 CNS
SK-MEL-2 melanoma = system: SK-MEL-2 melanoma
SK-MEL-28 melanoma = system: SK-MEL-28 melanoma
SK-MEL-5 melanoma = system: SK-MEL-5 melanoma
SK-OV-3 ovarian = system: SK-OV-3 ovarian
SN12C renal = system: SN12C renal
SNB-19 CNS = system: SNB-19 CNS
SNB-75 CNS = system: SNB-75 CNS
SR leukemia = system: SR leukemia
SW-620 colon = system: SW-620 colon
TK-10 renal = system: TK-10 renal
U251 CNS = system: U251 CNS
UACC-257 melanoma = system: UACC-257 melanoma
UACC-62 melanoma = system: UACC-62 melanoma
UO-31 renal = system: UO-31 renal
OVCAR-4 ovarian = system: OVCAR-4 ovarian
T-47D breast = system: T-47D breast

`Cc1nc2ccc(Cl)cc2c(Cl)c1CCCl` was tested. Which TGI (786-0 renal) did it give?
Its TGI is over 100 µM.

And the TGI (A498 renal)?
The TGI was over 100 µM.

And the TGI (A549 NSCLC)?
The TGI was over 100 µM.

And the TGI (ACHN renal)?
The TGI was over 100 µM.

What about the TGI (CAKI-1 renal) of the same molecule?
The TGI was over 100 µM.

What about the TGI (CCRF-CEM leukemia) of the same molecule?
The TGI was over 100 µM.

What about the TGI (COLO 205 colon) of the same molecule?
Its TGI is over 100 µM.

What about the TGI (DU-145 prostate) of the same molecule?
The TGI was over 100 µM.

And the TGI (EKVX NSCLC)?
The TGI was over 100 µM.

And the TGI (HCC-2998 colon)?
The TGI was over 100 µM.

And the TGI (HCT-116 colon)?
Its TGI is over 100 µM.

And the TGI (HCT-15 colon)?
Its TGI is over 100 µM.

What about the TGI (HL-60(TB) leukemia) of the same molecule?
The TGI was over 100 µM.

And the TGI (HOP-62 NSCLC)?
Its TGI is over 100 µM.

What about the TGI (HOP-92 NSCLC) of the same molecule?
Its TGI is 94.2 µM.

And the TGI (HS 578T breast)?
Its TGI is over 100 µM.

What about the TGI (HT29 colon) of the same molecule?
The TGI was over 100 µM.

And the TGI (IGROV1 ovarian)?
The TGI was over 100 µM.

And the TGI (K-562 leukemia)?
Its TGI is over 100 µM.

What about the TGI (KM12 colon) of the same molecule?
Its TGI is over 100 µM.

And the TGI (LOX IMVI melanoma)?
The TGI was over 100 µM.

And the TGI (M14 melanoma)?
Its TGI is over 100 µM.

What about the TGI (MALME-3M melanoma) of the same molecule?
The TGI was over 100 µM.

And the TGI (MCF7 breast)?
The TGI was 99.2 µM.

And the TGI (MDA-MB-231 breast)?
The TGI was over 100 µM.

What about the TGI (MDA-MB-435) of the same molecule?
Its TGI is 31.2 µM.

What about the TGI (MDA-N) of the same molecule?
The TGI was 40.9 µM.

What about the TGI (MOLT-4 leukemia) of the same molecule?
The TGI was over 100 µM.

And the TGI (NCI-H226 lung)?
The TGI was over 100 µM.

And the TGI (NCI-H23 lung)?
Its TGI is over 100 µM.

What about the TGI (NCI-H460 lung) of the same molecule?
Its TGI is over 100 µM.

What about the TGI (NCI-H522 lung) of the same molecule?
The TGI was over 100 µM.

And the TGI (NCI/ADR-RES ovarian)?
Its TGI is over 100 µM.

And the TGI (OVCAR-3 ovarian)?
The TGI was over 100 µM.

And the TGI (OVCAR-5 ovarian)?
The TGI was over 100 µM.

And the TGI (OVCAR-8 ovarian)?
Its TGI is over 100 µM.

What about the TGI (PC-3 prostate) of the same molecule?
Its TGI is over 100 µM.

And the TGI (RPMI-8226 leukemia)?
Its TGI is over 100 µM.

What about the TGI (RXF 393 renal) of the same molecule?
The TGI was over 100 µM.

And the TGI (SF-268 CNS)?
The TGI was over 100 µM.

And the TGI (SF-295 CNS)?
The TGI was over 100 µM.

And the TGI (SF-539 CNS)?
Its TGI is over 100 µM.

What about the TGI (SK-MEL-2 melanoma) of the same molecule?
The TGI was over 100 µM.

And the TGI (SK-MEL-28 melanoma)?
The TGI was over 100 µM.

What about the TGI (SK-MEL-5 melanoma) of the same molecule?
The TGI was over 100 µM.

And the TGI (SK-OV-3 ovarian)?
Its TGI is over 100 µM.

What about the TGI (SN12C renal) of the same molecule?
The TGI was over 100 µM.

And the TGI (SNB-19 CNS)?
Its TGI is over 100 µM.

And the TGI (SNB-75 CNS)?
The TGI was over 100 µM.

What about the TGI (SR leukemia) of the same molecule?
Its TGI is over 100 µM.

What about the TGI (SW-620 colon) of the same molecule?
The TGI was over 100 µM.

What about the TGI (TK-10 renal) of the same molecule?
Its TGI is over 100 µM.

And the TGI (U251 CNS)?
Its TGI is over 100 µM.

What about the TGI (UACC-257 melanoma) of the same molecule?
Its TGI is over 100 µM.

And the TGI (UACC-62 melanoma)?
The TGI was over 100 µM.

And the TGI (UO-31 renal)?
The TGI was over 100 µM.

How did the TGI (786-0 renal) turn out when `Nc1nc(N)c2nc(CNc3ccc(C(=O)NC(CCC(=O)O)C(=O)O)cc3F)cnc2n1` (configuration not stated) was run?
Its TGI is over 100 µM.

What about the TGI (A549 NSCLC) of the same molecule?
The TGI was over 100 µM.

And the TGI (ACHN renal)?
Its TGI is over 100 µM.

And the TGI (CAKI-1 renal)?
The TGI was over 100 µM.

And the TGI (CCRF-CEM leukemia)?
Its TGI is over 100 µM.

What about the TGI (COLO 205 colon) of the same molecule?
The TGI was over 100 µM.

What about the TGI (DU-145 prostate) of the same molecule?
Its TGI is over 100 µM.

And the TGI (EKVX NSCLC)?
The TGI was over 100 µM.

And the TGI (HCC-2998 colon)?
The TGI was over 100 µM.

What about the TGI (HCT-116 colon) of the same molecule?
Its TGI is over 100 µM.

What about the TGI (HCT-15 colon) of the same molecule?
The TGI was over 100 µM.

What about the TGI (HOP-62 NSCLC) of the same molecule?
The TGI was over 100 µM.

And the TGI (HS 578T breast)?
Its TGI is over 100 µM.

And the TGI (HT29 colon)?
The TGI was over 100 µM.

What about the TGI (IGROV1 ovarian) of the same molecule?
Its TGI is over 100 µM.

What about the TGI (K-562 leukemia) of the same molecule?
Its TGI is over 76.7 µM.

What about the TGI (KM12 colon) of the same molecule?
The TGI was over 100 µM.

What about the TGI (LOX IMVI melanoma) of the same molecule?
Its TGI is over 100 µM.

And the TGI (M14 melanoma)?
Its TGI is over 100 µM.

What about the TGI (MALME-3M melanoma) of the same molecule?
The TGI was over 100 µM.

What about the TGI (MCF7 breast) of the same molecule?
The TGI was over 100 µM.

And the TGI (MDA-MB-231 breast)?
Its TGI is over 100 µM.

What about the TGI (MDA-MB-435) of the same molecule?
The TGI was over 100 µM.

What about the TGI (MDA-N) of the same molecule?
The TGI was over 100 µM.

What about the TGI (NCI-H226 lung) of the same molecule?
The TGI was over 100 µM.

And the TGI (NCI-H23 lung)?
The TGI was over 100 µM.

What about the TGI (NCI-H460 lung) of the same molecule?
The TGI was over 100 µM.

And the TGI (NCI-H522 lung)?
The TGI was over 100 µM.

And the TGI (NCI/ADR-RES ovarian)?
The TGI was over 100 µM.

What about the TGI (OVCAR-3 ovarian) of the same molecule?
The TGI was over 100 µM.

And the TGI (OVCAR-4 ovarian)?
Its TGI is over 100 µM.

And the TGI (OVCAR-5 ovarian)?
Its TGI is over 100 µM.

And the TGI (OVCAR-8 ovarian)?
The TGI was over 100 µM.

What about the TGI (PC-3 prostate) of the same molecule?
Its TGI is over 100 µM.

And the TGI (RPMI-8226 leukemia)?
Its TGI is 67.2 µM.

What about the TGI (RXF 393 renal) of the same molecule?
Its TGI is over 100 µM.

And the TGI (SF-268 CNS)?
Its TGI is over 100 µM.

What about the TGI (SF-295 CNS) of the same molecule?
Its TGI is over 100 µM.

What about the TGI (SK-MEL-2 melanoma) of the same molecule?
The TGI was over 100 µM.

And the TGI (SK-MEL-28 melanoma)?
The TGI was over 100 µM.

What about the TGI (SK-MEL-5 melanoma) of the same molecule?
The TGI was over 100 µM.

And the TGI (SK-OV-3 ovarian)?
The TGI was over 100 µM.

And the TGI (SN12C renal)?
The TGI was over 100 µM.

And the TGI (SNB-19 CNS)?
Its TGI is over 100 µM.

What about the TGI (SNB-75 CNS) of the same molecule?
The TGI was over 100 µM.

And the TGI (SW-620 colon)?
The TGI was over 100 µM.

And the TGI (T-47D breast)?
The TGI was over 100 µM.

What about the TGI (TK-10 renal) of the same molecule?
Its TGI is over 100 µM.

And the TGI (U251 CNS)?
The TGI was over 100 µM.

What about the TGI (UACC-257 melanoma) of the same molecule?
The TGI was over 100 µM.

What about the TGI (UACC-62 melanoma) of the same molecule?
Its TGI is over 100 µM.
